Columns and labels:
[1] = test system: HSV thymidine kinase (TK) gene in cells containing an entrapment mutation in the Hesx1 gene; experiment: TK gene loss, selection in gancyclovir; assay type: cell-based, mouse; settings: Table 2
Description: Two types of experiments were performed to assess whether frequencies of LOH were transiently or stably elevated following carcinogen exposure. First, cells were treated with MNU and HU as before and the percentages of cells having undergone LOH were determined by selection in 2.0 mg/ml G418 at various times thereafter. Over 90% of the total LOH was induced within 24 hours of MNU and HU exposure, and only minimal additional LOH occurred subsequently (FIG. 14). Second, it was asked whether LOH frequencies at a second locus were elevated in cells having undergone LOH at the entrapment locus. For this, a Herpes Simplex Virus thymidine kinase (TK) gene was introduced into cells containing an entrapment allele of the Hesx1 gene and frequencies of TK gene loss were measured by selection in gangcyclovir. These studies utilized the cell line containing the TK gene (C8TK1) and derivatives of C8TK1 that had undergone LOH at the entrapment locus either spontaneously (C8TK1sN) or after treatment with either MNU (C8TKmN) or HU (C8TK1hN). […] Moreover, the stability of the TK gene following carcinogen treatment was largely unaffected by prior selection for LOH involving the entrapment locus. Similar results were also obtained with a second TK-containing line (C8TK2, Table 4). Together these experiments indicate that carcinogen-induced LOH results from an acute response rather than from a stably altered cellular phenotype.
Serially diluted cells were plated onto 150 mm plates containing drug-free media and allowed to attach overnight. Unattached cells were removed and media containing the indicated concentrations of methyl-nitrosourea, hydroxyurea, ethidium bromide, doxorubicin, methotrexate, diepoxybutane, or mitomycin C was put onto cells for 4 hours (or cells were exposed to ultraviolet light in the absence of media and allowed to recover in drug-free media for 4 hours). Cells were then rinsed twice with drug-free media and selection media containing 0.0, 0.3, or 2.0 mg/ml G418 was put onto cells. After 12 days of selection, the number of colonies surviving was counted and the frequency of colony formation was determined by dividing the number of colonies obtained from 2.0 mg/ml G418 selection to that obtained from parallel experiments with 0.3 mg/ml G418 selection. TK gene loss was assessed following selection in media containing 2 μg/ml gancyclovir.
Table 2. […] The HSV thymidine kinase (TK) gene was introduced into cells containing an entrapment mutation in the Hesx1 gene. A TK expressing (TK^+) clone (C8TK1) was used to select for cells that had undergone LOH at the entrapment locus (EL) spontaneously (C8TK1sN) or following treatment with HU (C8TK1hN) or MNU (C8TK1mN). The frequencies of TK gene loss were compared in cells with and without prior selection for LOH at the entrapment locus and the differences were expressed as the indicated ratios.
Table 4. Carcinogen-induced LOH does generate genetically unstable cells. The HSV thymidine kinase (TK) gene was introduced into cells containing an entrapment mutation in the Hesx1 gene. A TK expressing (TK+) clone (C8TK2) was used to select for cells that had undergone LOH at the entrapment locus (EL) spontaneously (C8TK2sN) or following treatment with HU (C8TK2hN) or MNU (C8TK2mN). The frequencies of spontaneous TK gene loss (Treatment=none) or TK gene loss following treatment with HU or MNU were compared in cells with (EL^−/−) and without prior selection for LOH (EL^+/+) at the entrapment locus and the differences were expressed as the indicated ratios.

[2] = test system: HSV thymidine kinase (TK) gene in cells containing an entrapment mutation in the Hesx1 gene; experiment: TK gene loss, selection in gancyclovir; assay type: cell-based, mouse

| Structure (SMILES) | Freq. TK loss ([1]; clone C8TK1mN (EL LOH induced by MNU), Treatment MNU) | Freq. TK loss ([1]; clone C8TK1mN (EL LOH induced by MNU, TK+ EL−/−), Treatment none) | Freq. TK loss ([1]; clone C8TK1sN (Spont. EL LOH), Treatment MNU) | Ratio of Freq. TK loss ([2]; Table 2, C8TK1mN and C8TK1sN, Treatment none) | Ratio of Freq. TK loss ([2]; Table 2, C8TK1sN and C8TK1mN, Treatment MNU) | Freq. TK loss ([2]; Table 4, clone printed C8TK1mN (EL LOH induced by MNU), Treatment MNU) | Freq. TK loss ([2]; Table 4, clone printed C8TK1mN (EL LOH induced by MNU, TK+ EL−/−), Treatment none) | Freq. TK loss ([2]; Table 4, clone printed C8TK1sN (Spont. EL LOH), Treatment MNU) | Ratio of Freq. TK loss ([2]; Table 4, printed C8TK1mN and C8TK1sN, Treatment none) | Ratio of Freq. TK loss ([2]; Table 4, printed C8TK1sN and C8TK1mN, Treatment MNU) | Ratio of Freq. TK loss ([1]; C8TK1sN and C8TK1hN, Treatment HU) | Freq. TK loss ([1]; clone C8TK1hN (EL LOH induced by HU), Treatment HU) | Freq. TK loss ([1]; clone C8TK1hN (EL LOH induced by HU, TK+ EL−/−), Treatment none) | Freq. TK loss ([1]; clone C8TK1sN (Spont. EL LOH), Treatment HU) | Ratio of Freq. TK loss ([2]; Table 2, C8TK1sN and C8TK1hN, Treatment none) | Freq. TK loss ([2]; Table 4, clone printed C8TK1hN (EL LOH induced by HU), Treatment HU) | Freq. TK loss ([2]; Table 4, clone printed C8TK1hN (EL LOH induced by HU, TK+ EL−/−), Treatment none) | Freq. TK loss ([2]; Table 4, clone printed C8TK1sN (Spont. EL LOH), Treatment HU) | Ratio of Freq. TK loss ([2]; Table 4, printed C8TK1sN and C8TK1hN, Treatment HU) | Ratio of Freq. TK loss ([2]; Table 4, printed C8TK1sN and C8TK1hN, Treatment none) |
| --- | --- | --- | --- | --- | --- | --- | --- | --- | --- | --- | --- | --- | --- | --- | --- | --- | --- | --- | --- | --- |
| CN(N=O)C(N)=O [MNU, methyl-nitrosourea] | 4.7 × 10^−4 | 1.4 × 10^−5 | 2.6 × 10^−4 | 2.6 | 1.8 | 4.5 × 10^−4 | 1.3 × 10^−5 | 2.9 × 10^−4 | 2.4 | 1.6 | – | – | – | – | – | – | – | – | – | – |
| NC(=O)NO [HU, hydroxyurea] | – | – | – | – | – | – | – | – | – | – | 1.7 | 3.9 × 10^−4 | 8.4 × 10^−5 | 2.3 × 10^−4 | 0.6 | 4.9 × 10^−4 | 1.2 × 10^−5 | 2.8 × 10^−4 | 1.8 | 2.3 |

Reference: patent US20100021895A1, “Vectors for Inducing Homozygous Mutations and Methods of Using Same” (priority 2006, published 2010)
